Source: patent US10654852B2, “Antibiotics and methods of using same” (THE BROAD INSTITUTE, INC., priority 2016, dated 2020)
Values after ≈ are worked out from the molar mass of the structure shown.

Key:
Format in all cases: cell-based
[1] = test system: Acinetobacter baumannii ATCC 17978; test: MIC (50% NHS); details: ATCC17978; Acinetobacter baumannii ATCC 17978, 50% NHS
[2] = test system: Proteus mirabilis ATCC-29906; test: MIC (50% NHS); details: ATCC29906; Proteus mirabilis ATCC-29906, 50% NHS
[3] = test system: Escherichia coli ATCC-BAA-2340; test: MIC (50% NHS); details: ATCCBAA2340; Escherichia coli ATCC-BAA-2340, 50% NHS
[4] = test system: Staphylococcus aureus NRS-100; test: MIC (50% NHS); details: NRS100; Staphylococcus aureus NRS-100, 50% NHS
[5] = test system: Escherichia coli CCUG-59353; test: MIC (50% NHS); details: CCUG59353; Escherichia coli CCUG-59353, 50% NHS
[6] = test system: Enterobacter cloacae ATCC-222; test: MIC (50% NHS); details: ATCC222; Enterobacter cloacae ATCC-222, 50% NHS
[7] = test system: Staphylococcus aureus WX1-009; test: MIC (50% NHS); details: WX1009; Staphylococcus aureus WX1-009, 50% NHS
[8] = test system: Enterobacter aerogenes ATCC-13048; test: MIC (50% NHS); details: Klebsiella aerogenes, ATCC13048; Enterobacter aerogenes ATCC-13048, 50% NHS
[9] = test system: Staphylococcus aureus NRS-384; test: MIC (50% NHS); details: NRS384; Staphylococcus aureus NRS-384, 50% NHS
[10] = test system: Klebsiella pneumonia ATCC-43816; test: MIC (50% NHS); details: Klebsiella pneumoniae, ATCC43816; Klebsiella pneumonia ATCC-43816, 50% NHS
[11] = test system: Escherichia coli NCTC-13476; test: MIC (50% NHS); details: NCTC13476; Escherichia coli NCTC-13476, 50% NHS
[12] = test system: Klebsiella pneumonia ATCC-700603; test: MIC (50% NHS); details: Klebsiella pneumoniae, ATCC700603; Klebsiella pneumonia ATCC-700603, 50% NHS
[13] = test system: Enterococcus faecalis ATCC-29212; test: MIC (50% NHS); details: ATCC29212; Enterococcus faecalis ATCC-29212, 50% NHS
[14] = test system: Enterococcus faecium ATCC-700221; test: MIC (50% NHS); details: ATCC700221; Enterococcus faecium ATCC-700221, 50% NHS
[15] = test system: Pseudomonas aeruginosa ATCC-BAA-47 (PAO1); test: MIC (50% NHS)
[16] = test system: Enterobacter cloacae ATCC-BAA-1143; test: MIC (50% NHS); details: ATCCBAA1143; Enterobacter cloacae ATCC-BAA-1143, 50% NHS
[17] = test system: Escherichia coli ATCC-25922; test: MIC in the presence of normal human serum (50% NHS); details: ATCC25922; Escherichia coli ATCC-25922, 50% NHS, Table 6; read-out: MIC
Excerpt: As used herein, the term “MIC” refers to minimum inhibitory concentrations. Minimum inhibitory concentrations may be determined by broth microdilution according to the Clinical and Laboratory Standards Institute guidelines (see, e.g., […]-A8. Methods for dilution antimicrobial susceptibility tests for bacteria that grow aerobically: approved standard, 8th Ed.; […] One example for measuring minimum inhibitory concentrations may be found in Reck et al., 2012, J. Med. Chem. 55:6916-6933, the disclosure of which is incorporated by reference. Inoculants may be incubated on blood agar plates for 18 to 24 hours. Incubation may occur at a temperature from about 35° C. to about 37° C. […] In serum supplemented experiments, the testing medium (e.g., DMSO solution) and human serum may be mixed. The ratio of testing medium to human serum may be 1:1 (vol:vol). Plates may be read by spectrophotometry at 620 nm. Unless indicated otherwise, all inhibitory concentrations recited in the specification relate to MICs. The MIC tests were based on broth microdilution method in CLSI-M7. […] Solutions of varying concentrations of DMSO were prepared in wells of a v-bottom 96-well plate (Axygen-WIPP02280). A multi-pipette was used to perform serial dilutions as necessary. From well to well, the drug concentrations were 6.4, 3.2, 1.6, 0.8, 0.4, 0.2, 0.1, 0.05, 0.025, 0.0125, 0.00625 and 0 mg/ml in DMSO. For extremely potent antibiotic, the starting concentrations were adjusted accordingly. This was the drug mother plate. Daughter plates were prepared by placing 98 μl of a testing medium into each well of a u-bottom 96-well plate (Costar 3788). An aliquot of each 2 μl solution from each well of the mother plate was then transferred into the corresponding wells of the daughter plate using a multi-pipette work station (CyBi®-SELMA). Testing media were selected based on CLSI-M7, M11 and […]. Cation adjusted Mueller Hinton Broth (CA-MHB-212322) was the testing medium for majority of bacterial species. Brucella medium (BD-211088) supplemented with 5% LHB, 0.5% hemin and 0.1% vitamin K1 (Sigma-95271) was the testing medium for anaerobic bacteria. One day prior to the day of MIC test, bacterial strains were streaked out from -80° C. glycerol stock onto Trypticase Soy Agar (TSA) plates (Brucella blood agar for anaerobic bacteria) and incubated at 37° C. for 20 hours (in anaerobic condition for anaerobic bacteria, e.g., 80% N2, 10% H2 and 10% CO2). Single colonies of bacteria were picked by using an inoculation loop (Greiner-731175) and suspended into 5 ml sterile saline. The turbidity of the suspension was adjusted to 0.10 (Siemens MicroS can turbidity meter), which implies a concentration of colony forming units (“CFU”) of approximately 1.0×10^8 CFU/ml. The bacterial suspension was diluted 100× in testing media. For MIC experiments with NHS, testing medium and human serum (Equitech Bio Inc. BRH-949908) were mixed in the ratio of 1:1. This was used for inoculation of the daughter plates. An aliquot of 100 μl of the bacterial suspension was inoculated into each well of the daughter plates using a multi-pipette. […] The plates were incubated in ambient atmosphere and at 37° C. in an incubator for 20 hours (for anaerobic bacteria in an anaerobic condition as described above for 48 hours). The MIC values were determined and based on the standards of CLSI methods M7-A7, broth microdilution method. […] Test compounds were compared to control antibiotics Penicillin G (Sigma-13752) and levofloxacin (Sigma-28266). […] Additionally, the MIC's of another gyrase inhibitor (“GSK”) with a structure different from the inventive compounds and the antibacterial levofloxin was measured. MIC are given in μg/mL.

[18] = test system: Citrobacter werkmanii Brenner ATCC-51114; test: MIC (50% NHS); details: ATCC51114; Citrobacter werkmanii Brenner ATCC-51114, 50% NHS
[19] = test system: Serratia marcescens Bizio ATCC-29021; test: MIC (50% NHS); details: ATCC29021; Serratia marcescens Bizio ATCC-29021, 50% NHS
[20] = test system: Staphylococcus aureus ATCC-29213; test: MIC (50% NHS); details: ATCC29213; Staphylococcus aureus ATCC-29213, 50% NHS

MIC [1]: 1 µg/mL (≈ 2.77 µM)
MIC [2]: 0.25 µg/mL (≈ 0.692 µM)
MIC [3]: > 2 µg/mL
MIC [4]: 0.5 µg/mL (≈ 1.38 µM)
MIC [5]: > 2 µg/mL
MIC [6]: 0.06 µg/mL (≈ 0.166 µM)
MIC [7]: > 2 µg/mL
MIC [8]: 0.13 µg/mL (≈ 0.36 µM)
MIC [9]: 1 µg/mL (≈ 2.77 µM)
MIC [10]: 0.13 µg/mL (≈ 0.36 µM)
MIC [11]: > 2 µg/mL
MIC [12]: 0.5 µg/mL (≈ 1.38 µM)
MIC [13]: 2 µg/mL (≈ 5.53 µM)
MIC [14]: > 2 µg/mL
MIC [15]: 1 µg/mL (≈ 2.77 µM)
MIC [16]: 0.06 µg/mL (≈ 0.166 µM)
MIC [18]: 0.25 µg/mL (≈ 0.692 µM)
MIC [19]: 0.13 µg/mL (≈ 0.36 µM)
MIC [20]: 0.5 µg/mL (≈ 1.38 µM)
Compound: C[C@H]1COc2c(N3CCN(C)CC3)c(F)cc3c(=O)c(C(=O)O)cn1c23 [Levofloxin, reference compound]
MIC [17]: 0.031 µg/mL
